Test results published in patent US8901177B2, “Method of treating bladder disorders” (Targacept, Inc., priority 2012, dated 2014).
“Also recorded” adds a separate entry of the source.

Tests used:
NMDA receptor NR1a-NR2A = NMDA receptor NR1a-NR2A (Homo sapiens, UniProt Q05586+Q12879); test: Glutamate-evoked currents at NR1a-NR2A receptors in Xenopus oocytes (two electrode voltage-clamp); assay type: cell-based
Protocol: (§1) All experiments were carried out at receptors expressed in Xenopus oocytes using the method of cDNA expression. Currents evoked by glutamate were recorded using the standard two electrode voltage-clamp configuration (TVEC). Xenopus oocytes were prepared and injected using standard procedures.
Briefly, ovaries are harvested from Xenopus Laevis females that have been deeply anesthetized and pithed following the animal rights rule from the Geneva canton. A small piece of ovary is isolated for immediate preparation while the remaining part is placed at 4° C. in a sterile Barth solution containing in mM NaCl 88, KCl 1, NaHCO3 2.4, HEPES 10, MgSO4.7H2O 0.82, Ca(NO3)2.4H2O 0.33, CaCl2.6H2O 0.41, at pH 7.4, and supplemented with 20 μg/ml of kanamycine, 100 unit/ml penicillin and 100 μg/ml streptomycin. On the second day following dissociation, oocytes are injected with 2 ng of cDNA per oocyte containing the NR1a-NR2A or NR1a-NR2B using an automated injector (Hogg et al., J. Neurosci. Methods, 2008). […] Cells were held at −80 mV. Data were filtered at 10 Hz, captured at 100 Hz and analyzed using HiQ proprietary data acquisition and analysis software running under Matlab (Mathworks Inc.).
Oocytes expressing the NR1a-NR2A or NR1a-NR2B receptors were challenged at periodic intervals with a glutamate test pulse. Test drug was then applied during a sustained period and its effects monitored by measuring the amplitude and time course of the glutamate evoked currents.
Experiments were carried out with the NR1a-NR2A and NR1a-NR2B at least in triplicate. Positive reference compounds (ketamine and MK-801) were tested using the same protocol.
(§2) To further evaluate effects of TC-5214, experiments using sustained exposure to this compound followed by a recovery period were carried out at NR1a-NR2A and NR1a-NR2B receptors. Measurements were made with (nM) 0, 3, 10, 30, 100, 300, TC-5214 and recovery monitored during 10 minutes. In addition, the same experimental protocol will be used with cells in control conditions to assess the stability of the measurements. Effects were measured in at least three cells.
A use-dependent protocol was used to identify non-competitive inhibition of the receptors. Cells expressing the NMDA receptors were tested for their sensitivity to TC-5214 at 30 nM, using the same protocol as described above. Cells from the same batch were tested in parallel using the same incubation time with an identical concentration of TC-5214 (30 nM) but in absence of pulses during the incubation time with the compound. Two glutamate pulses were applied at the end of the incubation time, and recovery monitored as for the control conditions.

NMDA receptor NR1a-NR2B = NMDA receptor NR1a-NR2B (Homo sapiens, UniProt Q05586+Q13224); test: Glutamate-evoked currents at NR1a-NR2B receptors in Xenopus oocytes (two electrode voltage-clamp); assay type: cell-based
Protocol: as §1
Briefly, ovaries are harvested from Xenopus Laevis females that have been deeply anesthetized and pithed following the animal rights rule from the Geneva canton. […] Data were filtered at 10 Hz, captured at 100 Hz and analyzed using HiQ proprietary data acquisition and analysis software running under Matlab (Mathworks Inc.).
Oocytes expressing the NR1a-NR2A or NR1a-NR2B receptors were challenged at periodic intervals with a glutamate test pulse. Test drug was then applied during a sustained period and its effects monitored by measuring the amplitude and time course of the glutamate evoked currents. […]
as §2, with “In addition, the same experimental protocol will be used with cells in control conditions to assess the stability of the measurements.” left out, “cells. […]” for “cells.”

[1] = biological target: T1, α6-containing nicotinic receptors (Homo sapiens, UniProt Q15825); test: α6-containing nicotinic receptors expressed in oocytes, stimulated with acetylcholine; assay type: cell-based; settings: acetylcholine alone or with increasing concentrations
T1 construct: expressed in transfected cells; host or cells: oocytes

[2] = tested on: bladder function in anesthetized rats; test: Intravesical model in anesthetized rats (increased bladder contraction frequency), cystometry; assay type: in vivo, rat; settings: 1 μM and 10 μM intravesical infusion
Protocol: Female Sprague Dawley rats (200-290 g) from Charles River France, housed in 3-4 rats per cage were anesthetized with urethane (1.2 g/kg) s.c., 3 mL/kg). A polyethylene catheter was implanted into the bladder through the dome. Ureters were tied and cut. Intravesical infusion periods with saline followed by an intravesical infusion period with one of the test compounds, hexamethonium (10 μM) or dexmecamylamine (1 and 10 μM), are depicted in FIG. 7.
The intravesical anesthetized rat model is a model of increased bladder contraction frequency. The model is a “simplified” well established model used to evaluate OAB agents, recognizing that there are decreased inputs from cortical centers. This is the first known experiment using the intravesical anesthetized rat model of increased bladder contraction frequency to test dexmecamylamine for potential efficacy in treating OAB.

[3] = assay type: in vivo, human
Protocol: More recently, dexmecamylamine was evaluated as adjunctive therapy in the treatment of major depressive disorder (MDD) in a large international Phase 3 depression program. […] More than 2400 subjects have received dexmecamylamine in double-blind or open-label studies.
No safety studies using dexmecamylamine have been performed in OAB. Phase 2 and Phase 3 clinical studies using dexmecamylamine in Major Depressive Disorder (MDD) have been conducted and completed. […] Briefly, in the fixed dose Phase 3 studies in MDD, at doses of 2 mg BID (the maximum doses to be studied in the OAB study), the most frequent treatment emergent adverse events that were reported more than 2% more commonly in the dexmecamylamine group compared to placebo group were: constipation (15.2% dexmecamylamine vs. 3.8% placebo); and dry mouth (7.0% dexmecamylamine vs. 1.3% placebo).

[4] = Mouse carcinogenicity studies; assay type: in vivo; settings: much higher doses and concentrations than in the clinical program
From the text: Further, the Summary Basis of Approval for Detrol® indicates similar (lower rates) of bladder dilatation, as is noted in dexmecamylamine's carcinogenicity studies. Urinary retention, and concomitant urinary tract infection, is not anticipated to be a therapy-limiting side effect for relatively low doses and concentrations of dexmecamylamine (FIG. 24).

[5] = Clinical trial for treatment of depression: rates of urinary tract infection and urinary retention; assay type: in vivo, human; settings: oral tablets 0.1, 0.5, 2 or 4 mg BID
Protocol: FIG. 24 is a table showing rates of urinary tract infection (UTI) and urinary retention in human patients administered dexmecamylamine in a yet unpublished clinical trial for treatment of depression. Patients received orally administered dexmecamylamine tablets of 0.1 mg, 0.5 mg, 2 mg or 4 mg BID (twice daily). At the end of the trial period, the patients were evaluated and the rates of side effects, including urinary tract infection (UTI) and urinary retention, were recorded.

α4β2 = α4β2 (Homo sapiens, UniProt P17787+P43681); settings: 1 μM; cited from earlier work
[6] = 3, 10, 30, 100, 300 nM, Glutamate 10 μM-Glycine 1 μM

Sequence of NMDA receptor NR1a-NR2A (Q12879 23-1464, other chains not shown): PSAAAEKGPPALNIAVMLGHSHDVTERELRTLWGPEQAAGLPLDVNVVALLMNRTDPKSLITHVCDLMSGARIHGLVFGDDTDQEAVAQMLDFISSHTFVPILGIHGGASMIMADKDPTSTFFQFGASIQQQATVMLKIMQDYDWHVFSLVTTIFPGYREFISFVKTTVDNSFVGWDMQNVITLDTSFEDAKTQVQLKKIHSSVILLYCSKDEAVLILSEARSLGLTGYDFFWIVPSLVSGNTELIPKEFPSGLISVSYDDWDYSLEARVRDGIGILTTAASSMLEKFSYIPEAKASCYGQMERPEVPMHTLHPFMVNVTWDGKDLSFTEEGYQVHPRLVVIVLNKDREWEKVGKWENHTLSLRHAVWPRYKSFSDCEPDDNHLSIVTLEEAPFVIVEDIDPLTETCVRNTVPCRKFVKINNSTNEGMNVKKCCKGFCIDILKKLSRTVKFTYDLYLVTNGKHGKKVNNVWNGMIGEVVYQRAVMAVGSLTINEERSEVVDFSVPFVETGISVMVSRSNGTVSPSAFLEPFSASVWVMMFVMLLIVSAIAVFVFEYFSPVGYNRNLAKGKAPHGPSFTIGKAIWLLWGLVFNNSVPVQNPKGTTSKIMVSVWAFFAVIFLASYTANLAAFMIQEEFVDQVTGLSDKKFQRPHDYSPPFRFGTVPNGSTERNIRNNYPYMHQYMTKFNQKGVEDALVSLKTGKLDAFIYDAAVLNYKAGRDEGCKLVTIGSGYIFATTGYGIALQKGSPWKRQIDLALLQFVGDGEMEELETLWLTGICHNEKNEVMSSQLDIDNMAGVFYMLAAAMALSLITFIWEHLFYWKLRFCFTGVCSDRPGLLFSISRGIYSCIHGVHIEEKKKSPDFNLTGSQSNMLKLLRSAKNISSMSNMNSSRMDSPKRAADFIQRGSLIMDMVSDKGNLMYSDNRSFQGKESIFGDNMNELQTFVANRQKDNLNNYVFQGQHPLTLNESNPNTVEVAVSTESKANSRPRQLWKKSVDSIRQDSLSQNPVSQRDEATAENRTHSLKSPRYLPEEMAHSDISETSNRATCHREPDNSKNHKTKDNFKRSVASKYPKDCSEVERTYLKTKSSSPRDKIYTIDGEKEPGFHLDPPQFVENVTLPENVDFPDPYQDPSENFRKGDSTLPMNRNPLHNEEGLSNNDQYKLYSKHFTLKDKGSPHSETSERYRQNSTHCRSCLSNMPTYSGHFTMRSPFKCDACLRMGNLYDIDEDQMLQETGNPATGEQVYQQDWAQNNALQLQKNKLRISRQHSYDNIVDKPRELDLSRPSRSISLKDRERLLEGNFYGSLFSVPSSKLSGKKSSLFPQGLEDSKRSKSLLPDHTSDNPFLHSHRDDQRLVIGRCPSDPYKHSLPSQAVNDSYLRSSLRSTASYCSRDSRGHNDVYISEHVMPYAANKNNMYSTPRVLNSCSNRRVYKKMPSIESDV
Sequence of NMDA receptor NR1a-NR2B (Q13224 27-1484, other chains not shown): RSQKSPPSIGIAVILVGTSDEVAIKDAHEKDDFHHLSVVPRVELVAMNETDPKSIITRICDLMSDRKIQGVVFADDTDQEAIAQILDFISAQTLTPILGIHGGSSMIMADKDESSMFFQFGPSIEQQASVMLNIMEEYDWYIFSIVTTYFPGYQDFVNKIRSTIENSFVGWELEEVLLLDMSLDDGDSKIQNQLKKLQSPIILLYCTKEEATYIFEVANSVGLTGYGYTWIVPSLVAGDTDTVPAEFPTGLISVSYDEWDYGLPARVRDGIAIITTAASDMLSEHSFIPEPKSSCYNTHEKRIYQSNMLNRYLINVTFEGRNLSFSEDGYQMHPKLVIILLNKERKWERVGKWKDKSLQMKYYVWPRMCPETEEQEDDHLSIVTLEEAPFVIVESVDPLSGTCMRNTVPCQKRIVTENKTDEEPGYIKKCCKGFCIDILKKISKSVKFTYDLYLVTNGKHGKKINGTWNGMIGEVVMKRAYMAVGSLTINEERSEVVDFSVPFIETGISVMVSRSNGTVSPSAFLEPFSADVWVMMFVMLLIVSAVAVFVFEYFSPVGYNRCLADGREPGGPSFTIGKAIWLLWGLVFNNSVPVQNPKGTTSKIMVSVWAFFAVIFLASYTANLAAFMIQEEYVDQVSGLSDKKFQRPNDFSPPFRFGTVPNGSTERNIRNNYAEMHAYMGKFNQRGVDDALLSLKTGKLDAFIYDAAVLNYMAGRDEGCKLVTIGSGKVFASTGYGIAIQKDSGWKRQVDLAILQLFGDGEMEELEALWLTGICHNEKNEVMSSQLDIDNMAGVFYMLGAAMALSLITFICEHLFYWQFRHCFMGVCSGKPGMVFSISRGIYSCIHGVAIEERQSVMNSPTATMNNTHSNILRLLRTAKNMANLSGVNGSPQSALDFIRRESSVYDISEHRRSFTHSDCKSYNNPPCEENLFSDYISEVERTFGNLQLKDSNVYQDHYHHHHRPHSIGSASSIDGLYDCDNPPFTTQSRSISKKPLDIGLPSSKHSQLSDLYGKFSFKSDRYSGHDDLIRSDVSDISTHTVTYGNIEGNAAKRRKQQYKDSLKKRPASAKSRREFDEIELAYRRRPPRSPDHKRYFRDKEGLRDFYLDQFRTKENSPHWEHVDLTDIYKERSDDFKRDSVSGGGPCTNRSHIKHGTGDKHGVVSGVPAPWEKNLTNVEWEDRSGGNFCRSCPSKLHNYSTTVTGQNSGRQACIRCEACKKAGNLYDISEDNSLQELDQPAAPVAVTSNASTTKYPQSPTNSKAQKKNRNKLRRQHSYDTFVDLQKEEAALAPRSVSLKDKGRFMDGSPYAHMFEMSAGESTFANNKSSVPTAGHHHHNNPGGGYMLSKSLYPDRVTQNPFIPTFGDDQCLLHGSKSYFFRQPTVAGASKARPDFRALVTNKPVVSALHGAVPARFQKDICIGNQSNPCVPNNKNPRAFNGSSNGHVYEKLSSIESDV
Sequence of α4β2 (P43681 29-627 limits assumed): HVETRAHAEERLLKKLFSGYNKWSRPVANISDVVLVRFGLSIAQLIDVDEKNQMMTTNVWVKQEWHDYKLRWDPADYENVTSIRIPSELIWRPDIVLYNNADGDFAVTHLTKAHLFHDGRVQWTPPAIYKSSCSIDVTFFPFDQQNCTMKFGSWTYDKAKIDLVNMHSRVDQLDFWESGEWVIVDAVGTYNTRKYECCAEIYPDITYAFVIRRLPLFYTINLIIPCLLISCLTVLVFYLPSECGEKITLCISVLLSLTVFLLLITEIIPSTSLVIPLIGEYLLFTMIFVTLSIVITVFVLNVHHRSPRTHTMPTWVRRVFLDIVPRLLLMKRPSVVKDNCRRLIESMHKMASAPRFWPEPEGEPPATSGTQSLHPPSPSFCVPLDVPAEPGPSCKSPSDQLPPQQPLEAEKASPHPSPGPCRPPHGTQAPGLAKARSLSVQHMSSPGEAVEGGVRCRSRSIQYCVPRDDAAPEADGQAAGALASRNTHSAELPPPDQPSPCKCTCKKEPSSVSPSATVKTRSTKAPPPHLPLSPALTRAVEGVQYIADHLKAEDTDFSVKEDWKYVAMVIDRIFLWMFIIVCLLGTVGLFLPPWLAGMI
Sequence of α4β2 (P17787 26-502): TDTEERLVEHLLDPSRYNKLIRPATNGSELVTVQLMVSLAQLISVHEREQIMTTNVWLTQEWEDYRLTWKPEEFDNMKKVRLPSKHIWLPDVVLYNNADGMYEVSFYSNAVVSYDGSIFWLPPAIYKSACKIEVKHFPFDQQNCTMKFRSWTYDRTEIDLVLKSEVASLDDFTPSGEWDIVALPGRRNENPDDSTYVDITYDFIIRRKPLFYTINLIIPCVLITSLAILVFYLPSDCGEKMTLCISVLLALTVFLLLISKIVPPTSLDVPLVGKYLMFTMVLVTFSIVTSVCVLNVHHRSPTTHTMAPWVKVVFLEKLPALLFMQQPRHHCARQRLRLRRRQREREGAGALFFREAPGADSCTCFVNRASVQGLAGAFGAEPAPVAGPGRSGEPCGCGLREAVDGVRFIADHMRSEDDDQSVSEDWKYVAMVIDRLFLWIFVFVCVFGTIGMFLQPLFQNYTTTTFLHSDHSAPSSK
T1 sequence (Q15825 26-494): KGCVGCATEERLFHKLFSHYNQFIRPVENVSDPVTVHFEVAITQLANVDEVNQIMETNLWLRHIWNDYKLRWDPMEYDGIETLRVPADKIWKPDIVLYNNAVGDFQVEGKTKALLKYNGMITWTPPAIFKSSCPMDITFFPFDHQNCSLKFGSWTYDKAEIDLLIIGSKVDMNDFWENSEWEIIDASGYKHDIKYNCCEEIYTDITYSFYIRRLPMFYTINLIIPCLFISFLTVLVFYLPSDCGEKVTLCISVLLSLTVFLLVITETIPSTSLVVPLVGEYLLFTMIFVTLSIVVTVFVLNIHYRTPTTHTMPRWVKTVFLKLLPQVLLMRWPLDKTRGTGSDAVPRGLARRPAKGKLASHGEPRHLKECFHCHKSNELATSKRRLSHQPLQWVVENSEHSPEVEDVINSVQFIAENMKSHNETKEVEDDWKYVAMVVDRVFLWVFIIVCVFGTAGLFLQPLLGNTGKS

CNC1(C)[C@H]2CCC(C2)C1(C)C (stereo partly drawn) [TC-5214, (S)—N,2,3,3-tetramethylnorbornan-2-amine]
extent of inhibition over concentration range (FIG. 22) (NMDA receptor NR1a-NR2A; [6]): complete inhibition
concentration at which it potently inhibits (NMDA receptor NR1a-NR2A; FIG. 23 legend): 10 to 30 nM
recovery following wash-out (NMDA receptor NR1a-NR2A; after sustained exposure): clear evidence for recovery
extent of inhibition over concentration range (FIG. 22) (NMDA receptor NR1a-NR2B; [6]): partial inhibition
concentration at which it potently inhibits (NMDA receptor NR1a-NR2B; FIG. 23 legend): 10 to 30 nM
sensitivity of α6-containing nicotinic receptors [1]: sensitive
bladder capacity (BC) [2]: statistically significant increase
inter-contraction interval (ICI) [2]: statistically significant increase
micturition frequency (MF) [2]: statistically significant decrease
bladder contraction amplitude (AM) ([2]; listed as dexmecamylamine): no significant decrease; also recorded: no significant change
efficacy in the treatment of depression ([3]; adjunctive therapy, Phase 3 program): failed to demonstrate efficacy
vital signs, blood or urine laboratory measurements, ECG conduction intervals, suicidality ([3]; human, in vivo): no noteworthy differences
urinary retention [4]: urinary retention was noted
side effects due to urinary retention [5]: without therapy-limiting side effects due to urinary retention
modulation of α4β2 function (α4β2): positive modulation
